From patent publication US8999940B2 (Ipsen Pharma S.A.S., priority 2008, dated 2015)
pKi: −log10 of the molar value.

Experiments:
[1] = Human plasma half-life assay; format: in vitro ADME; details: 37° C., LC-MS, read-out: Human Plasma T½ (converted)
[2] = Rat plasma half-life assay; format: in vitro ADME; details: 37° C., LC-MS, read-out: Rat Plasma T½ (converted)
[3] = target: T1, human recombinant GIP receptor (Homo sapiens, UniProt P48546); assay: In vitro hGIP receptor binding assay
T1 construct: expressed in transfected cells; host or cells: CHO-K1 clonal cells (membrane preparation)
T1 sequence (P48546 22-466): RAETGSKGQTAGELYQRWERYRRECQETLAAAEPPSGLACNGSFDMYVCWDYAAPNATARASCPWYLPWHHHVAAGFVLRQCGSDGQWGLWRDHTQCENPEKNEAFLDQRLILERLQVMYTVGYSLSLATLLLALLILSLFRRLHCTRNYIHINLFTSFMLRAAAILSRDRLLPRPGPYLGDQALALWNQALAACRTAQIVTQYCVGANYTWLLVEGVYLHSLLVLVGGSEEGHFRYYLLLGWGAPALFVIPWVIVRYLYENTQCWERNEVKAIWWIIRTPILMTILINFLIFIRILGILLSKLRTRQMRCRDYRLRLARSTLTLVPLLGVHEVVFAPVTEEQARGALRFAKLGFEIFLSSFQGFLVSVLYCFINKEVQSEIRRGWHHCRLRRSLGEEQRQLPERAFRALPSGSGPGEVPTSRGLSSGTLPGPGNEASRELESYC
Protocol: A. In Vitro hGIP Receptor Binding Assay […] The incubations were terminated by rapid filtration through GF/C filters (pre-soaked in 0.5% polyethylenimine) using a Brandel filtration manifold. Each tube and filter were then washed three times with 5-ml aliquots of ice-cold buffer.

Structure (SMILES) | half-life at 0.1 mg/ml [1] | half-life at 0.1 mg/ml [2] | pKi [3]
CC[C@H](C)[C@H](NC(=O)[C@H](CCCCN)NC(=O)[C@H](CC(=O)O)NC(=O)C1(NC(=O)[C@H](C)NC(=O)[C@@H](NC(=O)C2(NC(=O)[C@H](Cc3ccc(O)cc3)NC(=O)[C@H](CC(=O)O)NC(=O)[C@H](CO)NC(=O)[C@@H](NC(=O)[C@H](Cc3ccccc3)NC(=O)[C@@H](NC(=O)CNC(=O)[C@H](CCC(=O)O)NC(=O)C(C)(C)NC(=O)[C@@H](N)Cc3c(C)cc(O)cc3C)[C@@H](C)O)[C@@H](C)CC)CCCC2)[C@@H](C)CC)CCCC1)C(=O)N[C@@H](Cc1c[nH]cn1)C(=O)N[C@@H](CCC(N)=O)C(=O)N[C@@H](CCC(N)=O)C(=O)N[C@@H](CC(=O)O)C(=O)N[C@@H](Cc1ccccc1)C(=O)N[C@H](C(=O)N[C@@H](CC(N)=O)C(=O)N[C@@H](Cc1c[nH]c2ccccc12)C(=O)N[C@@H](CC(C)C)C(=O)N[C@@H](CC(C)C)C(=O)N[C@@H](C)C(=O)N[C@@H](CCC(N)=O)C(=O)N[C@@H](CCCCN)C(=O)NCC(=O)N[C@@H](CCCCN)C(=O)N[C@@H](CCCCN)C(=O)N[C@@H](CC(N)=O)C(=O)N[C@@H](CC(=O)O)C(=O)N[C@@H](Cc1c[nH]c2ccccc12)C(=O)N[C@@H](CCCCN)C(=O)N[C@@H](Cc1c[nH]cn1)C(=O)N[C@@H](CC(N)=O)C(=O)N[C@H](C(=O)N[C@H](C(=O)N[C@@H](CCC(N)=O)C(=O)N[C@@H](Cc1c[nH]cn1)C(=O)O)[C@@H](C)O)[C@@H](C)CC)C(C)C [Example 54, (2,6Me-Tyr^1, Aib^2, A5c^11, 14, His^43)hGIP(1-43)-OH] | > 50 h | 21.5 h | 7.30
CCCC[C@H](NC(=O)[C@H](C)NC(=O)[C@@H](NC(=O)C1(NC(=O)[C@H](Cc2ccc(O)cc2)NC(=O)[C@H](CC(=O)O)NC(=O)[C@H](CO)NC(=O)[C@@H](NC(=O)[C@H](Cc2ccccc2)NC(=O)[C@@H](NC(=O)CNC(=O)[C@H](CCC(=O)O)NC(=O)C(C)(C)NC(=O)[C@@H](N)Cc2c(C)cc(O)cc2C)[C@@H](C)O)[C@@H](C)CC)CCCC1)[C@@H](C)CC)C(=O)N[C@@H](CC(=O)O)C(=O)N[C@@H](CCCCN)C(=O)N[C@H](C(=O)N[C@@H](Cc1c[nH]cn1)C(=O)N[C@@H](CCC(N)=O)C(=O)N[C@@H](CCC(N)=O)C(=O)N[C@@H](CC(=O)O)C(=O)N[C@@H](Cc1ccccc1)C(=O)N[C@H](C(=O)N[C@@H](CC(N)=O)C(=O)N[C@@H](Cc1c[nH]c2ccccc12)C(=O)N[C@@H](CC(C)C)C(=O)N[C@@H](CC(C)C)C(=O)N[C@@H](C)C(=O)N[C@@H](CCC(N)=O)C(=O)N[C@@H](CCCCN)C(=O)NCC(=O)N[C@@H](CCCCN)C(=O)N[C@@H](CCCCN)C(=O)N[C@@H](CC(N)=O)C(=O)N[C@@H](CC(=O)O)C(=O)N[C@@H](Cc1c[nH]c2ccccc12)C(=O)N[C@@H](CCCCN)C(=O)N[C@@H](Cc1c[nH]cn1)C(=O)N[C@@H](CC(N)=O)C(=O)N[C@H](C(=O)N[C@H](C(=O)N[C@@H](CCC(N)=O)C(=O)N[C@@H](Cc1c[nH]cn1)C(=O)O)[C@@H](C)O)[C@@H](C)CC)C(C)C)[C@@H](C)CC [Example 55, (2,6Me-Tyr^1, Aib^2, A5c^11, Nle^14, His^43)hGIP(1-43)-OH] | 37.7 h | 16.1 h | 7.41
